Measured values: US8242160B2, “Inhibitors of ubiquitin E1” (The United States of America, as represented by the …, priority 2005, dated 2012)
Where a SMILES comes first, the peptide text is derived from it. [ ]: non-standard residue; d: D form. The star is where a group is joined. Nle = CCCC[C@H](N)C(=O)O; Cbz = O=C(OCc1ccccc1)*

Columns and labels:
Nedd4 = experiment: In vitro autoubiquitination of HECT E3 Nedd4; assay type: biochemical
Experimental: It was then evaluated whether 4-[4-(5-nitro-furan-2-ylmethylene)-3,5-dioxo-pyrazolidin-1-yl]-benzoic acid methyl acid blocks autoubiquitination of both RING finger E3s (Mdm2) and HECT E3s (Nedd4) in vitro.
5 pmole per experimental point of bacterially expressed GST-Mdm2 (or GST-Nedd) is coupled to glutathione Sepharose (GS) for 30 minutes at room temperature with tumbling, followed by 3× wash with 50 mM Tris pH 7.5. Following this, 20 μl of 1× buffer is added (40 μl 10× reaction buffer*, 40 μl 10× PCK**, 320 μl dH2O). The test compound in DMSO is then added to the desired concentration with an equal volume of DMSO used as a control. Samples are incubated with shaking for 1 hr at 23° C. To carry out the reaction, a pre-made cocktail of Rabbit E1 (Calbiochem #6620700)/UbCH5B/^32P Ub cocktail (1 μl/0.5 μl/1 μl) is added followed by 15 minutes shaking at 30° C. The reaction is terminated by addition of 8 μl 4× reducing SDS-PAGE loading buffer. After dissociating proteins from the beads at 100° C. for 2 minutes, samples are resolved on 6% PAGE followed by exposure of the dried gel to phosphor screen. Note: ^32P Ub is derived from GST-Ub that has been engineered to include a PKA phosphorylation site. This fusion protein is purified on glutathione Sepharose, phosphorylated, following this, the ^32P Ub ubiquitin is cleaved and purified away from the thrombin.

IκBα = experiment: TNFα-induced IκBα degradation in cells; assay type: cell-based
cyclin E = experiment: Degradation of in vitro translated cyclin E in S-100 cytosolic extract; assay type: biochemical
From the text: Cytosolic extracts from cells (S-100) contain all the components for ubiquitination and proteasomal degradation. To further evaluate 4-[4-(5-nitro-furan-2-ylmethylene)-3,5-dioxo-pyrazolidin-1-yl]-benzoic acid methyl acid, we made use of in vitro translated cyclin E, which is degraded in S-100 in a time-dependent manner (FIG. 3, upper panel, lanes 1-4).

O=c1nc2n(-c3cccc(Cl)c3)c3ccc([N+](=O)[O-])cc3cc-2c(=O)[nH]1 [98CO7, 10-(-3-chloro-phenyl)-7-nitro-10H-pyrimido[4,5-b]quinoline-2,4-dione, reference compound]
autoubiquitination of Nedd4 (Nedd4): only has very moderate effects

CCCC[C@@H](C=O)NC(=O)[C@H](CC(C)C)NC(=O)[C@H](CC(C)C)NC(C)=O [ALLN, reference compound] (Ac-Leu-Leu-[Nle]-aldehyde)
TNFα-induced IκBα degradation (IκBα): prevents TNFα-induced IκBα degradation

CC(C)C[C@@H](C=O)NC(=O)[C@H](CC(C)C)NC(=O)[C@H](CC(C)C)NC(=O)OCc1ccccc1 [MG132, reference compound] (Cbz-Leu-Leu-Leu-aldehyde)
cyclin E degradation in S-100 (cyclin E; no exogenous E1): block cyclin E degradation
cyclin E degradation in S-100 after addition of purified exogenous E1 (cyclin E; purified exogenous E1 added to the reaction mixture): unable to overcome the block in cyclin E degradation
